The source of these data is patent US20260001914A1, “MACROCYCLIC PEPTIDES TARGETING KRAS” (Merck Sharp & Dohme LLC, priority 2022, published 2026).

*1 amine or outer side, *2 acyl side, *3 side chain or, on linkers, in order; H or OH if unused. Where a SMILES comes first, the peptide text is derived from it. Bridges are numbered along the chain shown (N, C = ends). [ ]: non-standard residue; d: D form. cBu(1-CO,cis-3-CH2NH) = O=C([C@H]1C[C@@H](CN[*:1])C1)[*:2]; NMeNva(5-imidazol-1-yl) = CN[C@@H](CCCn1ccnc1)C(=O)O; Phe(4-guanidino) = N=C(N)Nc1ccc(C[C@H](N)C(=O)O)cc1; X65 = O=C([C@H](CCCn1ccnc1[N+](=O)[O-])N[*:1])[*:2]; Ala(pyrimidin-5-yl) = N[C@@H](Cc1cncnc1)C(=O)O; Phe(3-COOH) = N[C@@H](Cc1cccc(C(=O)O)c1)C(=O)O; X6 = O=C([C@H](Cc1cnn(C2COC2)c1)N[*:1])[*:2]; Ala(thiazol-2-yl) = N[C@@H](Cc1nccs1)C(=O)O; NMePhe(3-Me) = CN[C@@H](Cc1cccc(C)c1)C(=O)O; NMePhe(3-F) = CN[C@@H](Cc1cccc(F)c1)C(=O)O; Lys(N3) = [N-]=[N+]=NCCCC[C@H](N)C(=O)O; Nle(5,5-F2) = CC(F)(F)CC[C@H](N)C(=O)O; Phe(4-F) = N[C@@H](Cc1ccc(F)cc1)C(=O)O; 1Nal = N[C@@H](Cc1cccc2ccccc12)C(=O)O; NHCH2CH2SCH2CO = O=C(CSCCN[*:1])[*:2]; Phe(2-F) = N[C@@H](Cc1ccccc1F)C(=O)O; NMe3Pal = CN[C@@H](Cc1cccnc1)C(=O)O; X1 = O=C(C12CC(CN[*:1])(C1)C2)[*:2]; NMeLys(Me) = CNCCCC[C@H](NC)C(=O)O; Ala(cPr) = N[C@@H](CC1CC1)C(=O)O; NMeF = CN[C@@H](Cc1ccccc1)C(=O)O; PhLac = O=C(O)[C@@H](O)Cc1ccccc1; 3Pal = N[C@@H](Cc1cccnc1)C(=O)O; 4Pal = N[C@@H](Cc1ccncc1)C(=O)O; d3Pal = N[C@H](Cc1cccnc1)C(=O)O; Ahp(2) = CCCCC[C@H](N)C(=O)O; Cba = N[C@@H](CC1CCC1)C(=O)O; hLeu = CC(C)CC[C@H](N)C(=O)O; αMeC = C[C@](N)(CS)C(=O)O; NMeA = CN[C@@H](C)C(=O)O; Nle = CCCC[C@H](N)C(=O)O; Pra = C#CC[C@H](N)C(=O)O; Nva = CCC[C@H](N)C(=O)O

Usually EC50 stands for the concentration that produces a half-maximal response.

For this experiment, the target named is KRAS-G12D protein (Homo sapiens, UniProt P01116, G12D). Briefly: SOS-mediated nucleotide exchange assay (BODIPY-GDP / Tb-streptavidin TR-FRET). The format is biochemical. A general note: Time-resolved FRET reads energy transfer from a long-lived donor to a nearby acceptor.
Sequence of KRAS-G12D protein (P01116 1-188 isoform P01116-2 G12D): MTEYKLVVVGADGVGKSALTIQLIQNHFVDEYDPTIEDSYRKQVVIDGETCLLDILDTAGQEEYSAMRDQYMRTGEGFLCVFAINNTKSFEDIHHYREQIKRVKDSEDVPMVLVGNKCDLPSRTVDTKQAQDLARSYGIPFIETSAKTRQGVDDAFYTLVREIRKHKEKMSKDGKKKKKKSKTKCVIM
`CCCC[C@@H]1NC(=O)[C@H](Cc2nccs2)NC(=O)[C@H](C)N(C)C(=O)[C@H](Cc2ccccc2)OC(=O)C23CC(CNC(=O)[C@H](Cc4ccccc4)N(C)C(=O)[C@H](CCCC)NC(=O)[C@H](Cc4ccccc4F)NC1=O)(C2)C3` [compound 320, cyclo(FLac-NMeA-2TzA-Nle-Phe2F-Nle-NMeF-amBCP)] (cyclo([NMeA][Ala(thiazol-2-yl)][Nle][Phe(2-F)][Nle][NMeF][X1][PhLac])) had an EC50 of 4360 nM. `CCCC[C@@H]1NC(=O)[C@H](Cc2cncnc2)NC(=O)[C@H](C)N(C)C(=O)[C@H](Cc2ccccc2)OC(=O)C23CC(CNC(=O)[C@H](Cc4cccc(F)c4)N(C)C(=O)[C@H](CCCC)NC(=O)[C@H](Cc4ccccc4F)NC1=O)(C2)C3` [compound 174, cyclo(FLac-NMeA-PyrimAla-Nle-Phe2F-Nle-NMePhe3F-amBCP)] (cyclo([NMeA][Ala(pyrimidin-5-yl)][Nle][Phe(2-F)][Nle][NMePhe(3-F)][X1][PhLac])) registered a concentration for a half-maximal effect (EC50) of 12.2 nM. Turning to `CCCCC[C@@H]1NC(=O)[C@H](Cc2ccc(OC)cc2)NC(=O)[C@H](CC2CCC2)NC(=O)[C@H](Cc2ccc(=O)[nH]c2)NC(=O)[C@H](CCCNC(=N)N)NC(=O)[C@H](Cc2ccccc2)NC(=O)CSC[C@@](C)(C(N)=O)NC(=O)[C@H](Cc2ccccc2)N(C)C1=O` [compound 369, cyclo(F-R-4CO3Pal-cBuA-TyrOMe-Abp-NMeF-aMeCl-ClAc)], the EC50 was 19.4 nM.

For `CCCC[C@@H]1NC(=O)[C@H](Cc2ccccc2F)NC(=O)[C@H](CC2CCC2)NC(=O)[C@@H](Cc2cccnc2)NC(=O)[C@H](CCCn2ccnc2[N+](=O)[O-])NC(=O)[C@H](Cc2ccccc2)NC(=O)C23CC(CNC(=O)[C@H](Cc4cccnc4)N(C)C1=O)(C2)C3` [compound 107, cyclo(F-NO2IMNva-d3Pal-cBuA-Phe2F-Nle-NMe3Pal-amBCP)] (cyclo(F[X65][d3Pal][Cba][Phe(2-F)][Nle][NMe3Pal][X1])), the response was half-maximal at 242 nM (EC50). For the compound `CCC[C@@H]1NC(=O)[C@H](Cc2ccc(OC)cc2)NC(=O)[C@H](CC(C)C)NC(=O)[C@H](Cc2ccncc2)NC(=O)[C@H](CCCNC(=N)N)NC(=O)[C@H](Cc2ccc(F)cc2)NC(=O)CSC[C@H](C(=O)NCC(=O)O)NC(=O)[C@H](Cc2ccccc2)N(C)C1=O` [compound 65, cyclo(Phe4F-R-4Pal-L-TyrOMe-Nva-NMeF-dC5-ClAc)] ({CH2CO}-[Phe(4-F)]R[4Pal]LY(Me)[Nva][NMeF][dC]G-OH; thioether N-8), the EC50 amounted to 70.2 nM. In turn, `CCCC[C@@H]1NC(=O)[C@H](Cc2cccnc2)NC(=O)[C@H](CCCn2ccnc2)N(C)C(=O)[C@H](Cc2ccccc2)N(C)C(=O)[C@H]2C[C@@H](CNC(=O)[C@H](Cc3cccnc3)N(C)C(=O)[C@H](CCCCN=[N+]=[N-])NC(=O)[C@H](Cc3ccccc3F)NC1=O)C2` [compound 157, cyclo(NMeF-NMeNvalmid-3Pal-Nle-Phe2F-LysN3-NMe3Pal-c3amCblc)] (cyclo([3Pal][Nle][Phe(2-F)][Lys(N3)][NMe3Pal][cBu(1-CO,cis-3-CH2NH)][NMeF][NMeNva(5-imidazol-1-yl)])) returned a half-maximal effective concentration (EC50) of 7760 nM.

`C#CC[C@@H]1NC(=O)[C@H](CC2CC2)NC(=O)[C@H](Cc2cncnc2)NC(=O)[C@H](C)N(C)C(=O)[C@H](Cc2ccccc2)OC(=O)C23CC(CNC(=O)[C@H](Cc4ccccc4)N(C)C(=O)[C@H](CCC(C)C)NC1=O)(C2)C3` [compound 286, cyclo(FLac-NMeA-PyrimAla-cPrA-Pra-hL-NMeF-amBCP)] (cyclo([Ala(cPr)][Pra][hLeu][NMeF][X1][PhLac][NMeA][Ala(pyrimidin-5-yl)])) displayed an EC50 of 1990 nM. The figure for `CCCC[C@@H]1NC(=O)[C@H](CCCCN)NC(=O)[C@H](CCCNC(=N)N)NC(=O)[C@H](Cc2cccc3ccccc23)NC(=O)CSCCNC(=O)[C@H](Cc2ccccc2)N(C)C(=O)[C@H](CCCC)NC(=O)[C@H](Cc2cccc(C(=O)O)c2)NC1=O` [compound 197, cyclo(1Nal-R-K-Nle-Phe3COOH-Nle-NMeF-Cysteamine)-ClAc] (cyclo([1Nal]RK[Nle][Phe(3-COOH)][Nle][NMeF][NHCH2CH2SCH2CO])) is 2120 nM. `CCCCC[C@@H]1NC(=O)[C@H](Cc2ccc(OC)cc2)NC(=O)[C@H](CC2CCC2)NC(=O)[C@H](Cc2ccc(NC(=N)N)cc2)NC(=O)[C@H](CCCCNC)N(C)C(=O)[C@H](Cc2ccccc2)NC(=O)CSC[C@@](C)(C(N)=O)NC(=O)[C@H](Cc2ccccc2)N(C)C1=O` [compound 360, cyclo(F-NMeLysMe-Phe4Gn-cBuA-TyrOMe-Ahp-NMeF-aMeCl-ClAc)] ({CH2CO}-F[NMeLys(Me)][Phe(4-guanidino)][Cba]Y(Me)[Ahp(2)][NMeF][αMeC]-NH2; thioether N-8) had a half-maximal effective concentration (EC50) of 291 nM. The figure for `CCCC[C@@H]1NC(=O)[C@H](Cc2ccccc2F)NC(=O)C(CC2CC(F)(F)C2)NC(=O)[C@H](Cc2cncnc2)NC(=O)[C@H](C)N(C)C(=O)[C@H](Cc2ccccc2)OC(=O)C23CC(CNC(=O)[C@H](Cc4cccnc4)N(C)C1=O)(C2)C3` (single isomer, unassigned) [compound 122, cyclo(FLac-NMeA-PyrimAla-rF2Cba-Phe2F-Nle-NMe3Pal-amBCP)] is 236 nM. With `CCCC[C@@H]1NC(=O)[C@H](Cc2cncnc2)NC(=O)[C@H](C)N(C)C(=O)[C@H](Cc2ccccc2)OC(=O)C23CC(CNC(=O)[C@H](Cc4cccc(C)c4)N(C)C(=O)[C@H](CCCC)NC(=O)[C@H](Cc4ccccc4F)NC1=O)(C2)C3` [compound 172, cyclo(FLac-NMeA-PyrimAla-Nle-Phe2F-Nle-NMePhe3Me-amBCP)] (cyclo([NMeA][Ala(pyrimidin-5-yl)][Nle][Phe(2-F)][Nle][NMePhe(3-Me)][X1][PhLac])) the figure was 6.03 nM. As to `C[C@H]1C(=O)N[C@@H](Cc2cnn(C3COC3)c2)C(=O)N[C@@H](CC2CC2)C(=O)N[C@@H](Cc2ccccc2F)C(=O)N[C@@H](CCC(C)(F)F)C(=O)N(C)[C@@H](Cc2ccccc2)C(=O)NCC23CC(C2)(C3)C(=O)O[C@@H](Cc2ccccc2)C(=O)N1C` [compound 291, cyclo(FLac-NMcA-AlaPyzlOx-cPrA-Phe2F-Nle3F2-NMeF-amBCP)] (cyclo([Ala(cPr)][Phe(2-F)][Nle(5,5-F2)][NMeF][X1][PhLac][NMeA][X6])), the response was half-maximal at 1 nM (EC50). The figure for `CCCC[C@@H]1NC(=O)[C@H](Cc2ccc(O)cc2)NC(=O)[C@H](CC(C)C)NC(=O)[C@H](Cc2ccc(O)cc2)NC(=O)[C@H](CCCNC(=N)N)NC(=O)[C@H](Cc2cccc3ccccc23)NC(=O)CSC[C@H](C(N)=O)NC(=O)[C@H](Cc2ccccc2)N(C)C1=O` [compound 17, cyclo(INal-R-Y-L-Y-Nle-NMeF-dCl-ClAc)] ({CH2CO}-[1Nal]RYLY[Nle][NMeF][dC]-NH2; thioether N-8) is 1050 nM; for `CCCC[C@@H]1NC(=O)[C@H](Cc2cccnc2)NC(=O)[C@H](C)N(C)C(=O)[C@H](Cc2ccccc2)OC(=O)C23CC(CNC(=O)[C@H](Cc4ccccc4)N(C)C(=O)[C@H](CCCC)NC(=O)[C@H](Cc4ccccc4F)NC1=O)(C2)C3` [compound 236, cyclo(FLac-NMeA-3Pal-Nle-Phe2F-Nle-NMeF-amBCP)] (cyclo([3Pal][Nle][Phe(2-F)][Nle][NMeF][X1][PhLac][NMeA])) it is 50.3 nM.
